The text below walks through data of PubChem BioAssay AID1259407 (Chemical Carcinogenesis Research Information System (CCRIS), 2018).

The subject of the data set is CCRIS mutagenicity, Ames/micronucleus/aberration tests. As to the kind of experiment: CCRIS mutagenicity studies.
Where [1] appears, read: Test System: AMES SALMONELLA TYPHIMURIUM, Strain/Indicator: TA98, Metabolic Activation: NONE, Method: PREINCUBATION
Where [2] appears, read: Test System: AMES SALMONELLA TYPHIMURIUM, Strain/Indicator: TA98, Metabolic Activation: NONE, Method: STANDARD PLATE.
[3] abbreviates: Test System: AMES SALMONELLA TYPHIMURIUM, Strain/Indicator: TA100, Metabolic Activation: NONE, Method: PREINCUBATION
The mark [4] stands for this setting: Test System: AMES SALMONELLA TYPHIMURIUM, Strain/Indicator: TA98, Metabolic Activation: RAT, LIVER, S-9, PCB, Method: PREINCUBATION
The mark [5] stands for this setting: Test System: AMES SALMONELLA TYPHIMURIUM, Strain/Indicator: TA100, Metabolic Activation: RAT, LIVER, S-9, PCB, Method: PREINCUBATION
Where [6] appears, read: Test System: AMES SALMONELLA TYPHIMURIUM, Strain/Indicator: TA98, Metabolic Activation: RAT, LIVER, S-9, AROCLOR 1254, Method: STANDARD PLATE.
The mark [7] stands for this setting: Test System: AMES SALMONELLA TYPHIMURIUM, Strain/Indicator: TA100, Metabolic Activation: NONE, Method: STANDARD PLATE.
[8] abbreviates: Test System: AMES SALMONELLA TYPHIMURIUM, Strain/Indicator: TA100, Metabolic Activation: RAT, LIVER, S-9, AROCLOR 1254, Method: STANDARD PLATE.

Structures are written as SMILES. The source made the active and inactive calls. No rule for the calls is given here.

For the molecule `O=S(=O)(O)OCc1c2ccccc2c2ccc3cccc4ccc1c2c43`, the mutagenic call is, setting by setting: under setting [1], “active; positive”; under setting [2], “active; positive”; under setting [3], “active; positive”; (Test System: CHINESE HAMSTER V-79, Strain/Indicator: V-79 (HGPRT)/6-THIOGUANINE, Metabolic Activation: NONE) “active; positive”; (Test System: CHINESE HAMSTER V-79, Strain/Indicator: V-79 (NA/K-ATPASE)/OUABAIN, Metabolic Activation: NONE) “active; positive”.
Turning to `Cc1ccc2cccnc2c1`, the mutagenic call (Test System: AMES SALMONELLA TYPHIMURIUM, Strain/Indicator: TA98, Metabolic Activation: HAMSTER, LIVER, S-9, AROCLOR 1254 (30%), Method: PREINCUBATION) was “active; positive”; the mutagenic call under setting [1] is “inactive; negative”; the mutagenic call (Test System: AMES SALMONELLA TYPHIMURIUM, Strain/Indicator: TA98, Metabolic Activation: RAT, LIVER, S-9, AROCLOR 1254 (30%), Method: PREINCUBATION) was “inactive; negative”; the mutagenic call (Test System: AMES SALMONELLA TYPHIMURIUM, Strain/Indicator: TA100, Metabolic Activation: HAMSTER, LIVER, S-9, AROCLOR 1254 (30%), Method: PREINCUBATION) was “active; positive”; the mutagenic call under setting [3] was “inactive; negative”; the mutagenic call (Test System: AMES SALMONELLA TYPHIMURIUM, Strain/Indicator: TA100, Metabolic Activation: RAT, LIVER, S-9, AROCLOR 1254 (30%), Method: PREINCUBATION) was “active; positive”. Also, the mutagenic call is “active; positive” (Test System: AMES SALMONELLA TYPHIMURIUM, Strain/Indicator: TA100, Metabolic Activation: RAT, LIVER, S-9, PHENOBARBITAL AND 5,6-BENZOFLAVONE, Method: PREINCUBATION); “active; positive” (Test System: AMES SALMONELLA TYPHIMURIUM, Strain/Indicator: TA100, Metabolic Activation: RAT, LIVER, S-9, PHENOBARBITAL AND 5,6-NAPHTHOFLAVONE, Method: PREINCUBATION); “active; positive” (Test System: AMES SALMONELLA TYPHIMURIUM, Strain/Indicator: TA100, Metabolic Activation: RAT, LIVER, S-9, Method: PREINCUBATION).
For `N#CCCC(=O)CCc1ccc(C(=O)O)cc1`, the mutagenic call under setting [1] was “active; positive”, the mutagenic call under setting [4] is “inactive; negative”, the mutagenic call under setting [3] is “inactive; negative” and the mutagenic call under setting [5] is “inactive; negative”.
As to `Oc1ccc2cc3ccc4cccc5ccc(c2c1)c3c45`, the mutagenic call (Test System: AMES SALMONELLA TYPHIMURIUM, Strain/Indicator: TA98, Metabolic Activation: RAT, LIVER, 3-METHYLCHOLANTHRENE, Method: LIQUID SUSPENSION) is “active; positive”; the mutagenic call (Test System: AMES SALMONELLA TYPHIMURIUM, Strain/Indicator: TA1538, Metabolic Activation: RAT, LIVER, 3-METHYLCHOLANTHRENE, Method: LIQUID SUSPENSION) was “active; positive”; the mutagenic call (Test System: CHINESE HAMSTER V-79, Strain/Indicator: V-79/OUABAIN, Metabolic Activation: NONE, Method: STANDARD PLATE) was “active; positive”.
On to `O=C1c2ccccc2C(=O)c2c1cc(O[C@@H]1O[C@H](CO[C@@H]3OC[C@@H](O)[C@H](O)[C@H]3O)[C@@H](O)[C@H](O)[C@H]1O)c(CO)c2O`, for which the mutagenic call under setting [1] is “inactive; negative”; the mutagenic call under setting [4] was “inactive; negative”; the mutagenic call under setting [3] was “active; positive”; the mutagenic call under setting [5] was “inactive; negative”; the mutagenic call (Test System: UDS RODENT HEPATOCYTES, Strain/Indicator: THY INCORP, Metabolic Activation: NONE) was “active; positive”.
For `O=C(Cl)c1cccc(Cl)c1`, the mutagenic call runs as follows: under setting [1], “inactive; negative”; (Test System: AMES SALMONELLA TYPHIMURIUM, Strain/Indicator: TA98, Metabolic Activation: RAT LIVER S-9, PCB, Method: PREINCUBATION) “active; positive”; under setting [3], “inactive; negative”; (Test System: AMES SALMONELLA TYPHIMURIUM, Strain/Indicator: TA100, Metabolic Activation: RAT LIVER S-9, PCB, Method: PREINCUBATION) “active; positive”; (Test System: AMES SALMONELLA TYPHIMURIUM, Strain/Indicator: TA104, Metabolic Activation: NONE, Method: PREINCUBATION) “inactive; negative”; (Test System: AMES SALMONELLA TYPHIMURIUM, Strain/Indicator: TA104, Metabolic Activation: RAT LIVER S-9, PCB, Method: PREINCUBATION) “active; positive”. For the same molecule, the mutagenic call by setting is: (Test System: E.COLI, Strain/Indicator: WP2 UVRA, Metabolic Activation: NONE, Method: PREINCUBATION) “inactive; negative”; (Test System: E.COLI, Strain/Indicator: WP2 UVRA, Metabolic Activation: RAT LIVER S-9, PCB, Method: PREINCUBATION) “active; positive”.
With `O=C(O)Nc1ccccc1`, the mutagenic call reads like this: under setting [2], “inactive; negative”; under setting [6], “inactive; negative”; under setting [7], “inactive; negative”; under setting [8], “inactive; negative”.
Turning to `CC1=CC(=O)CC(C)(C)C1`, the mutagenic call was “active; positive (structural changes)” (End Point: IN VITRO CHROMOSOMAL ABERRATIONS, Test System: CHINESE HAMSTER LUNG FIBROBLAST CELLS (CHL/IU), Metabolic Activation: RAT, LIVER, S-9, PHENOBARBITAL AND 5,6-BENZOFLAVONE); “inactive; negative; precipitation occurred at 1600 ug/ml” (End Point: IN VITRO CHROMOSOMAL ABERRATIONS, Test System: CHO CELLS, Metabolic Activation: NONE); “inactive; negative” (End Point: IN VITRO CHROMOSOMAL ABERRATIONS, Test System: CHO CELLS, Metabolic Activation: RAT, LIVER, S-9, AROCLOR 1254); “inactive; negative” (Test System: AMES SALMONELLA TYPHIMURIUM, Strain/Indicator: TA98, Metabolic Activation: HAMSTER, LIVER, S-9, AROCLOR 1254, Method: STANDARD PLATE); “inactive; negative” under setting [2]; “inactive; negative” under setting [6]. Besides, the mutagenic call (Test System: AMES SALMONELLA TYPHIMURIUM, Strain/Indicator: TA100, Metabolic Activation: HAMSTER, LIVER, S-9, AROCLOR 1254, Method: STANDARD PLATE) was “inactive; negative”; the mutagenic call under setting [7] is “inactive; negative”; the mutagenic call under setting [8] was “inactive; negative”; the mutagenic call (Test System: AMES SALMONELLA TYPHIMURIUM, Strain/Indicator: TA1535, Metabolic Activation: HAMSTER, LIVER, S-9, AROCLOR 1254, Method: STANDARD PLATE) was “inactive; negative”; the mutagenic call (Test System: AMES SALMONELLA TYPHIMURIUM, Strain/Indicator: TA1535, Metabolic Activation: NONE, Method: STANDARD PLATE) was “inactive; negative”; the mutagenic call (Test System: AMES SALMONELLA TYPHIMURIUM, Strain/Indicator: TA1535, Metabolic Activation: RAT, LIVER, S-9, AROCLOR 1254, Method: STANDARD PLATE) is “inactive; negative”. The mutagenic call was “inactive; negative” (Test System: AMES SALMONELLA TYPHIMURIUM, Strain/Indicator: TA1537, Metabolic Activation: HAMSTER, LIVER, S-9, AROCLOR 1254, Method: STANDARD PLATE); “inactive; negative” (Test System: AMES SALMONELLA TYPHIMURIUM, Strain/Indicator: TA1537, Metabolic Activation: NONE, Method: STANDARD PLATE); “inactive; negative” (Test System: AMES SALMONELLA TYPHIMURIUM, Strain/Indicator: TA1537, Metabolic Activation: RAT, LIVER, S-9, AROCLOR 1254, Method: STANDARD PLATE); “inactive; negative” (Test System: MOUSE LYMPHOMA, Strain/Indicator: L5178Y (TK+/TK-), Metabolic Activation: NONE, Method: MICROWELL); “inactive; negative” (Test System: MOUSE LYMPHOMA, Strain/Indicator: L5178Y (TK+/TK-), Metabolic Activation: RAT, LIVER, S-9, AROCLOR 1242 AND AROCLOR 1254 (2:1), Method: SUSPENSION/PLATE); “active; positive” (Test System: UDS RAT HEPATOCYTES, Strain/Indicator: BROMODEOXYURIDINE INCORP, Metabolic Activation: NONE, Method: FLOW CYTOMETRIC ANALYSIS). Moreover, the mutagenic call (Test System: UDS RAT HEPATOCYTES, Strain/Indicator: THY INCORP, Metabolic Activation: NONE, Method: AUTORADIOGRAPHY) was “active; positive”.
Take `Nc1ccc(I)cc1`: the mutagenic call (End Point: IN VITRO MICRONUCLEUS, Test System: CHL/IU CELLS, Metabolic Activation: RAT, LIVER, S-9, PHENOBARBITAL AND 5,6-BENZOFLAVONE) is “inactive; negative”.
As for `O=[N+]([O-])c1ccc2c(Cl)nsc2c1`, the mutagenic call under setting [2] was “active; positive”.
